Test results taken from patent US20170051014A1, “PEPTIDE HAVING EFFICACY FOR REMEDYING HYPOPIGMENTATION AND INHIBITING ADIPOGENESIS, AND USE OF SAME” (CAREGEN CO., LTD., priority 2014, published 2017).
Bridge positions count the residues as written; N and C are the ends.

Legend:
[1] = cited from earlier work; for side effects / weight loss effect: background statement on marketed anti-obesity drugs
[2] = tested on: CREB; assay: Melanogenesis signaling molecules by western blot: CREB phosphorylation; format: cell-based, mouse; settings: B16F10 cells, observed over time (6 to 24 hours)
Method: Melanocytes (B16F10 cell line) were incubated on 6-well culture plates in an incubator for 24 hours, and were treated with the peptide of the present invention with different concentrations. After the cells were incubated for from 6 to 24 hours, the cells were dissolved, and then the CREB phosphorylation and MITF expression, which are signaling molecules involved in melanogenesis, were observed by western blot assay using antibodies specific thereto. The test was carried out using anti-pCREB antibody (Santa Cruz Biotechnology, USA) and anti-MITF antibody (Santa Cruz Biotechnology, USA).

[3] = tested on: MITF; assay: Melanogenesis signaling molecules by western blot: MITF; format: cell-based, mouse; settings: B16F10 cells, observed over time (6 to 24 hours)
Method: Melanocytes (B16F10 cell line) were incubated on 6-well culture plates in an incubator for 24 hours, and were treated with the peptide of the present invention with different concentrations. After the cells were incubated for from 6 to 24 hours, the cells were dissolved, […], which are signaling molecules involved in melanogenesis, were observed by western blot assay using antibodies specific thereto. The test was carried out using anti-pCREB antibody (Santa Cruz Biotechnology, USA) and anti-MITF antibody (Santa Cruz Biotechnology, USA).

[4] = tested on: tyrosinase; assay: Melanogenic enzyme gene level by RT-PCR: tyrosinase; format: cell-based, mouse; settings: B16F10 cells, 6-hour treatment and 24-hour treatment
Method: (§1) Melanocytes (B16F10 cell line) were incubated on 6-well culture plates in an incubator for 24 hours, and were treated with the peptides of the present invention with different concentrations. After the incubation for hours, the cells were taken off, and then, the increases in the expressions of tyrosinase and TRP1, which are enzymes involved in melanogenesis, were observed by RT-PCR using primers specific thereto.
(§2) Target-specific primer sequences used in PCR for enzymes involved in melanogenesis were as follows: Tyrosinase forward primer sequence, 5′-[…]-3′ and tyrosinase reverse primer sequence, 5′-[…]-3′ (annealing temperature, 51° C.); TRP1 forward primer sequence, 5′-[…]-3′ and TRP1 reverse primer sequence, 5′-[…]-3′ (annealing temperature, 60° C.)

[5] = tested on: TRP1; assay: Melanogenic enzyme gene level by RT-PCR: TRP1; format: cell-based, mouse; settings: B16F10 cells, 6-hour treatment and 24-hour treatment
Method: as §1, §2

[6] = tested on: tyrosinase; assay: Melanogenic enzyme protein level by western blot: tyrosinase; format: cell-based, mouse; settings: B16F10 cells, 6-hour treatment and 24-hour treatment
Method: Melanocytes (B16F10 cell line) were incubated on 6-well culture plates in an incubator for 24 hours, and were treated with the peptide of the present invention with different concentrations. […] The test was conducted using an anti-tyrosinase antibody (Santa Cruz Biotechnology, USA).

[7] = tested on: Pre-adipocytes (3T3-L1 cell line); assay: Measurement of triglyceride amount in differentiating pre-adipocytes; format: cell-based; settings: 3T3-L1 cells with differentiation inducing material, incubation for 7 days, absorbance 540 nm
Method: Pre-adipocytes (3T3-L1 cell line) were incubated on 24-well plates for 48 hours, and then treated with the peptide of the present invention with different concentrations together with a differentiation composition (0.5 mM IBMX, […], […]), followed by incubation for 7 days. The cells were taken off, and then put in a dissolution buffer (50 mM Tris, 150 mM NaCl, 1% Triton X-100, proteolytic enzyme inhibitor), and kept in ice for 30 minutes. After centrifugation at 14,000 g for 10 minutes, the supernatant containing an oil layer was collected, and a triglyceride reagent was added thereto, followed by reaction in an incubator at 37° C. for 5 minutes. The absorbance was measured at 540 nm to determine the amount of triglycerides.

[8] = tested on: perilipin; assay: Adipogenesis-related gene expression by RT-PCR: perilipin; format: cell-based; settings: 3T3-L1 cells with differentiation inducing material, incubation for 7 days
Method: (§3) Pre-adipocytes (3T3-L1 cell line) were incubated on 6-well plates for 48 hours, and then treated with the present peptide with different concentrations together with a differentiation composition (0.5 mM IBMX, […], […]), followed by incubation for 7 days. After the incubation, PT-PCR was conducted using primers specific to perilipin and PPARγ, which are genes involved in the adipogenesis mechanism. It was investigated whether the mRNA values of perilipin and PPARγ were inhibited.
(§4) Target-specific primer sequences used in PCR for enzymes involved in adipogenesis were as follows: perilipin forward primer sequence, 5′-[…]-3′ and perilipin reverse primer sequence, 5′-[…]-3′ (annealing temperature, 60° C.); PPARγ forward primer sequence, 5′-[…]-3′ and PPARγ reverse primer sequence, 5′-[…]-3′ (annealing temperature, 60° C.)

[9] = tested on: PPARγ; assay: Adipogenesis-related gene expression by RT-PCR: PPARγ; format: cell-based; settings: 3T3-L1 cells with differentiation inducing material, incubation for 7 days
Method: as §3, §4

Compound | side effects [1] | weight loss effect [1] | effect of reducing body fat ([1]; background statement on anti-obesity drugs) | phosphorylation level of CREB [2] | MITF protein expression level [3] | expression of tyrosinase gene [4] | expression of TRP1 gene [5] | expression of tyrosinase protein [6] | level of triglycerides accumulated in cells [7] | gene expression of perilipin [8] | gene expression of PPARγ [9]
CC(C)CC(N(C)C)C1(c2ccc(Cl)cc2)CCC1 (stereo not shown) [Reductil] | cardiovascular diseases, such as stroke and myocardial infarction | 5-10% | – | – | – | – | – | – | – | – | –
CCCCCCCCCCC[C@@H](C[C@@H]1OC(=O)[C@H]1CCCCCC)OC(=O)[C@H](CC(C)C)NC=O [Xenical] | frequent diarrhea | 2-3% | – | – | – | – | – | – | – | – | –
Cn1c(=O)c2[nH]cnc2n(C)c1=O [aminophylline] | broad side effects throughout the mental nervous system, circulatory system, and digestive system | – | excellent effect of reducing body fat | – | – | – | – | – | – | – | –
NH2-Gln-Cys-Arg-Phe-Phe-Arg-Ser-Ala-Cys-COOH (H-QCRFFRSAC-OH; cysteine pairing not given here) [SEQ ID NO: 1] | – | – | – | increased | increased | increased compared with a control | increased compared with a control | increased compared with a control | reduced in a concentration-dependent manner | reduced compared with a control | reduced compared with a control
NH2-Tyr-Cys-Arg-Phe-Phe-Asn-Ala-Phe-Cys-COOH (H-YCRFFNAFC-OH; disulfide 2-9 (inferred)) [SEQ ID NO: 2] | – | – | – | increased | increased | increased compared with a control | increased compared with a control | increased compared with a control | reduced in a concentration-dependent manner | reduced compared with a control | reduced compared with a control
